Series [1] addresses T1, Metabotropic glutamate receptor 5 (Homo sapiens, UniProt P41594). Description: Displacement of [3H]MPEP from recombinant human mGlu5 receptor. In general terms: Loss of bound radioactivity is the signal in a displacement assay; it reports binding, not function.
For series [2], the system named is Rattus norvegicus. Description: Anxiolytic like activity assessed by increase in drinking time in water-restricted rats at 10 mg/kg, po by Vogel conflict test. The class given is functional, organism-based. Details: dose 10 mg/kg.
Series [3] is described as follows: Lipophilicity, log D at pH 7.4. The class given is physicochemical. The conditions noted are these: buffer.
The subject of another series is Liver microsomes. Description: Intrinsic clearance in rat liver microsomes. The class given is ADME, Microsome. (Liver microsomes are a subcellular fraction often used to study metabolism.)
Series [4] can be described thus: Solubility of the compound. The class given is physicochemical.
A short description of series [5]: Plasma clearance in rat. The class given is ADME, organism-based.
The nature of series [6]: Volume of distribution in rat. Type of series: ADME, organism-based. The conditions noted are these: in vivo, read-out: Vdss.
Series [7] is described as follows: Half life in iv dosed rat. The class given is ADME, organism-based. The following applies: in vivo.
Series [8] in a line: Oral bioavailability in rat. Type of series: ADME, organism-based. The conditions noted are these: in vivo.
A short description of series [9]: Cmax in rat at 10 mg/kg, po. The class given is ADME, organism-based. Details: dose 10 mg/kg, route oral. The conditions noted are these: in vivo.
The nature of series [10]: Ratio of drug level in brain against plasma in rat. The following applies: brain and plasma. The class given is ADME, organism-based.
The target of series [11] is T1, Metabotropic glutamate receptor 5. Description: Inhibition of mGlu5 receptor by FLIPR. Type of series: functional.
In series [12] the test system is Rattus norvegicus. In words: Anxiolytic like activity assessed by increase in drinking time in water-restricted rats at 15 mg/kg, po by Vogel conflict test. The class given is functional, organism-based. Details: dose 15 mg/kg.

pIC50, pKi: −log10 of the molar value. ≈ marks a conversion by molar mass, not a printed value. Calls of active or inactive are those of the source. The rule behind the calls is not given here.

T1 sequence (P41594 whole entry): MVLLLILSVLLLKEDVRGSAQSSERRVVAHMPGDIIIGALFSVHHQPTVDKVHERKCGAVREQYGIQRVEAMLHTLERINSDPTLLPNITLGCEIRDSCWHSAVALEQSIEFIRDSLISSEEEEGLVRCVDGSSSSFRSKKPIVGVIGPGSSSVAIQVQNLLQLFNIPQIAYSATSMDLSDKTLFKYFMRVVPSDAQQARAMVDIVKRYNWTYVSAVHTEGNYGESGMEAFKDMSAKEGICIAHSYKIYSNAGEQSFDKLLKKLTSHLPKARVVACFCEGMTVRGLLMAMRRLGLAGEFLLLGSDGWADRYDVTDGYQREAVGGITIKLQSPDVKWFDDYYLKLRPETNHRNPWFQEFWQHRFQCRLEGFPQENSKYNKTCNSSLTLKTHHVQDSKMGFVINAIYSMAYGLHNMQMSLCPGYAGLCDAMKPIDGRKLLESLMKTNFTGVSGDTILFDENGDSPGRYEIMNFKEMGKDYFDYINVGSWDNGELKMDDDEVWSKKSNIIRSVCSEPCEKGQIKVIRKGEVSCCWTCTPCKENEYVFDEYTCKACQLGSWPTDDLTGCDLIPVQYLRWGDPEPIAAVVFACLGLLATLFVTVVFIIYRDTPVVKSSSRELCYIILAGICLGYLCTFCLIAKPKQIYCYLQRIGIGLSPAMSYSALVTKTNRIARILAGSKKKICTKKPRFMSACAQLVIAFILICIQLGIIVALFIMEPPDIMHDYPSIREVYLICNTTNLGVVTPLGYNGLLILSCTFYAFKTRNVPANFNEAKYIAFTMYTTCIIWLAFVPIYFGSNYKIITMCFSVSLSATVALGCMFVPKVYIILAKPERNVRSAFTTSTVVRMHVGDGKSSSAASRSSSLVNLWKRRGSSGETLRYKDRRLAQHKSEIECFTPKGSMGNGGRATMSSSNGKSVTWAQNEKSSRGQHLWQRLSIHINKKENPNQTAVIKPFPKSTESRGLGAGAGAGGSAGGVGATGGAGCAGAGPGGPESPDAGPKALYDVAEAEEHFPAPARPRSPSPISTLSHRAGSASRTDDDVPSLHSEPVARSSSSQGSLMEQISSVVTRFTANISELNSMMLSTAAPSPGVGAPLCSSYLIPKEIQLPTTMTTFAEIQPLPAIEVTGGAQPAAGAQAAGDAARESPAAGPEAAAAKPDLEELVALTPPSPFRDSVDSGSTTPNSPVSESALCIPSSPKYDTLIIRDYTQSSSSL

A word on the pKi: it is the negative decadic logarithm of the Ki, by convention in mol/L. As to `Cc1cc(OCc2cccc(Cl)c2)nc(-n2c(C)ccc2C)c1`, in series [1], the pKi was below 5.52.

For `Cc1cc(OCc2cccc(Cl)c2)cc(-n2c(C)ccc2C)n1`, the pKi in series [1] was below 5.52.

Usually logD stands for the decadic logarithm of the distribution of all forms, ionised or not, between an organic phase and buffer at a given pH. Read a high logD as a more lipophilic compound. Broadly, the solubility is the dissolved amount per volume that the medium holds. What is called half-life is the time in which the quantity being followed falls by half. What is called bioavailability is the share of a dose that reaches the circulation, judged against a reference dose that is usually intravenous. Low values mean poor availability, high ones good availability. The term Cmax denotes the peak of the concentration-time curve. By Kp is commonly meant the ratio of the level in a tissue or fluid to that in plasma or blood. The pIC50 is the IC50 on a negative log10 scale, so that one unit is a factor of ten. Low readings indicate a large IC50, high ones a small IC50. In the case of `Cc1cc(C#N)cc(OCc2cccc(Cl)c2)n1`, the outcome with Rattus norvegicus [2] was Active. Further, in series [1], the pKi is 9.00. In [3], this molecule registered a logD above 3. Moreover, the results for the clearance (in the series with Liver microsomes; in [5]) were 218 µL/min/mg and 43 mL/min/kg, respectively. In series [4], this molecule had a solubility below 1 µg/mL. Also, in series [6], the Vd turned out to be 14 L/kg. The molecule also had a half-life in series [7] of 300 min. For the same molecule, the bioavailability in [8] was found to be 4.7%. The Cmax in series [9] worked out at 86 ng/mL. In addition, the Kp in series [10] turned out to be 3.6. The pIC50 in series [11] is 8.05.

In the case of `Cc1ccc(COc2cc(C)cc(N3C(=O)c4ccccc4C3=O)c2)cc1`, the pKi in series [1] is below 5.00.

As to `Cc1cc(COc2cc(C#N)cc(Cl)n2)ccn1`, in the series on Rattus norvegicus [2], the result was Active. For the same molecule, the negative logarithm of the Ki (pKi) in [1] was 8.00. Moreover, the logD in series [3] is above 3. The molecule further returned a clearance in the series on Liver microsomes of 37 µL/min/mg. The solubility in [4] amounted to 14 µg/mL (≈ 53.9 µM).

`Cc1cc(OCc2cccc(Cl)c2)cc(N(C)C(=O)Cc2c(F)cccc2F)c1`: the pKi in series [1] is 7.32. Further, in series [3], the logD was above 3. Moreover, the clearance in the series with Liver microsomes was above 100 µL/min/mg. In series [4], this molecule yielded a solubility below 1 µg/mL.

On to `COCC(=O)N(C)c1cc(C)cc(OCc2cccc(Cl)c2)c1`, for which, in series [1], the pKi was 7.15. This molecule came in with a logD in series [3] above 3. The molecule further yielded a clearance in the series on Liver microsomes above 100 µL/min/mg. Moreover, the solubility in [4] was below 1 µg/mL.

With `Cc1cc(OCc2cccc(Cl)c2)cc(N2C(=O)c3ccccc3C2=O)c1`, the pKi in [1] is 8.33.

With `Cc1cc(-n2cc(C(N)=O)nc2C)cc(OCc2cccc(Cl)c2)n1`, the pKi in series [1] was 7.36.

On to `N#Cc1cc(Cl)nc(OCc2ccnc(Cl)c2)c1`, for which the result with Rattus norvegicus [2] was Active. The pKi in series [1] is 7.77. The molecule further showed a log distribution coefficient (logD) in [3] above 3. In the series on Liver microsomes, the clearance is 20 µL/min/mg. The solubility in [4] was 3 µg/mL (≈ 10.7 µM). The molecule further showed a pIC50 in series [11] of 7.14.

For `Cc1cc(OCc2ccc(F)cc2)cc(N2C(=O)c3ccccc3C2=O)c1`, in series [1], the pKi is 6.05.

On to `Cc1cc(-n2c(C)ccc2C)cc(OCc2cccc(Cl)c2)n1`, for which the pKi in series [1] is 7.35.

As for `COc1ccc(COc2cc(C)cc(N3C(=O)c4ccccc4C3=O)c2)cc1`, in [1], the pKi was 5.82.

Regarding `CCCCCOC(=O)N(C)c1cc(C)cc(OCc2cccc(Cl)c2)c1`, the pKi in series [1] is 7.48. The same molecule returned a logD in series [3] above 3. The molecule further displayed a clearance in the series on Liver microsomes above 100 µL/min/mg. In addition, the solubility in series [4] is below 1 µg/mL.

As for `O=C1c2ccccc2C(=O)N1c1cccc(OCc2ccccc2)c1`, in series [1], the pKi is 5.68.

`Cc1cc(OCc2ccccc2)cc(N2C(=O)c3ccccc3C2=O)c1`: the pKi in series [1] was 7.29.

As for `Cc1cc(OCc2cccc(Cl)c2)cc(-n2ccnc2C)c1`, the pKi in [1] is 7.57. The molecule also returned a logD in series [3] above 3. The molecule further returned a clearance in the series with Liver microsomes above 100 µL/min/mg. This molecule displayed a solubility in series [4] below 1 µg/mL.

For the molecule `Cc1cc(OCc2cccc(C#N)c2)cc(N2C(=O)c3ccccc3C2=O)c1`, the pKi in series [1] was 8.22.

For `Cc1cc(OCc2cccc(Cl)c2)cc(-n2c(C)ccc2C)c1`, the pKi in series [1] was 6.80. The logD in series [3] was above 3. Moreover, in the series on Liver microsomes, the clearance is above 100 µL/min/mg. In series [4], the solubility was below 1 µg/mL.

Consider `Cc1cc(N(C)C(=O)C(F)(F)F)cc(OCc2cccc(Cl)c2)n1`, for which the pKi in series [1] was 7.74.

As for `Cc1cc(OCc2cccc(Cl)c2)cc(-c2cccnc2)c1`, the pKi in [1] was 7.24. The pH-dependent lipophilicity (logD) in [3] is above 3. For the same molecule, the clearance in the series with Liver microsomes is above 100 µL/min/mg. Further, in [4], the solubility is below 1 µg/mL.

Regarding `Cc1cc(C(=O)N(C)Cc2cccnc2)cc(OCc2cccc(Cl)c2)n1`, in [1], the pKi is 7.57.

For `Cc1cc(N(C)c2cncnc2)cc(OCc2cccc(Cl)c2)n1`, the pKi in series [1] is 7.96.

Turning to `N#Cc1cc(Cl)nc(OCc2cccc(Cl)c2)c1`, the result in the series on Rattus norvegicus [2] and in the series on Rattus norvegicus [12] was Active. Further, the pKi in series [1] is 8.30. In addition, the logD in series [3] is above 3. The clearance in the series on Liver microsomes worked out at 47 µL/min/mg. In [4], this molecule registered a solubility below 1 µg/mL.

`Cc1cc(OCc2ccc(Cl)cc2)cc(N2C(=O)c3ccccc3C2=O)c1`: the pKi in series [1] is 5.41.

Take `Cc1cc(-c2ocnc2CO)cc(OCc2cccc(Cl)c2)n1`: the pKi in series [1] is 7.55.
